Source: US20200306295A1, “METHOD AND DEVICE FOR ANNIHILATION OF Staphylococcus aureus” (priority 2017, published 2020)

Experiments:
[1] = system: MRSA USA300
Method: Thereafter, an aliquot (20 μL) of the bacterial suspension was transferred onto a glass slide. Samples were exposed to blue light at different time-lengths and variable light intensities. […] The solutions were cultured for 20 min. The solution was serially diluted in sterile PBS and transferred to LB plates in order to enumerate the viable number of MRSA colony-forming units (CFUs). […] Data are presented as viable MRSA CFU/mL and percent survival of MRSA CFU/mL in the treated groups.
Additive was defined as an FIC index of 1. Antagonism was defined as an FIC index of >4.

[2] = system: stationary-phase MRSA; assay: Time-killing assay in PBS with or without pulsed laser (CFU enumeration); assay type: cell-based, S. aureus
Method: To quantify viable bacterial cells, CFU experiments were performed. 100 μl of sample analyte was transferred into a 96-well plate and then three or four ten-fold serial dilution achieved by transferring 20 μl bacterial culture into 180 μl 1×PBS in the next dilution row. After serial dilution, an aliquot (4 μl) from each well was spotted onto sterile TSA plates. After incubating the plates overnight (˜18 hours) at 37° C., the colonies were enumerated, and cell number was calculated in CFU/ml. For each CFU enumeration experiment, three independent replicates were applied.
Stationary-phase MRSA was prepared, washed and resuspended in 1×PBS at two-times of its original concentration. […] After laser treatment, the droplets were resuspended into 200 μl of 1×PBS (1:40 dilution) supplemented with antibiotics at different concentrations in a mini centrifuge tube (89166-278, VWR international). For example, daptomycin was added into MRSA solution after laser treatment at desired concentration of 0×MIC, 5×MIC, 10×MIC, 30×MIC, or 100×MIC supplemented with 50 μg/ml CaCl2). Corresponding groups without laser treatment were also conducted for comparison. These tubes were incubated within an orbital incubator (37° C., 200 rpm) for different incubation time. At each specific time point, 40 μl of aliquot from each group was transferred to a 96-well plate for follow-up CFU enumerating assay. In the case of tobramycin, additional antibiotic washing by 1×PBS was performed before the CFU experiment to avoid antibiotic interference. For time-killing assay in fresh human whole blood, similar protocol was followed as above, except that 1×PBS was replaced by fresh human whole blood and the initial stationary-phase MRSA solution was diluted by ten times with a concentration of ˜10^7 CFU/ml.

[3] = system: S. aureus (ATCC 6538) biofilm; conditions: blue light plus low-concentration H2O2

In the case of `OO` [H2O2, hydrogen peroxide], the “MRSA killing (CFUs)” value ([1]; 13.2 mM H2O2 combined with blue light 108 J/cm^2, ~10^7 MRSA) is reported as “eradicated all MRSA”, the MRSA scavenged ([1]; 5-min culture with H2O2 after 2-min blue light exposure (24 J/cm^2)) is reported as 60% and the “antimicrobial efficiency relative to 2-min blue light alone” value ([1]; H2O2 20 min, 13.2 mM after 2-min blue light (24 J/cm^2)) is reported as “Two times antimicrobial efficiency”. For the same compound, the FIC index ([1]; blue light and H2O2 against MRSA, ≤0.5 is synergy, according to estimation) was no more than 0.38, the “killing of stationary-phase MRSA” value ([2]; 220 μM with laser treatment, within 2 hours) was 4 log and the “killing of stationary-phase MRSA” value ([2]; alone, at 22 mM high concentration) was “minor killing”. For the same compound, the “MRSA killed inside biofilm” value [3] was 92%.
